Assay results: patent publication US20260297081A1, “COMPOUNDS AND METHODS OF TREATING CANCERS” (Cullgen Inc., priority 2023, published 2026)

How the values were obtained:
Assay type in all cases: cell-based
CDK4 [1] = target: T1, CDK4 (Homo sapiens, UniProt P11802+Q16531); assay: HiBiT detection of HiBiT-tagged CDK4 protein level in MCF7 cells, 16 hours (Table 8); parameters: expressed in transfected cells; host or cells: MCF7; settings: MCF7 cells stably expressing HiBiT tagged target proteins; for activity at 0.01 µM: 10 nM, read-out: % CDK4 Relative Level (10 nM); for activity at 0.1 µM: 100 nM, read-out: % CDK4 Relative Level (100 nM)
Procedure: HiBiT detection system quantitatively measures total amounts of HiBiT-tagged proteins using a luminescent based method. MCF7 cells stably expressing HiBiT tagged target proteins were treated with heterobifunctional compounds at indicated concentrations for 16 hours, then lysed with Nano-Glo HiBiT Lytic detection reagents.
Target sequence in this assay (P11802 whole entry): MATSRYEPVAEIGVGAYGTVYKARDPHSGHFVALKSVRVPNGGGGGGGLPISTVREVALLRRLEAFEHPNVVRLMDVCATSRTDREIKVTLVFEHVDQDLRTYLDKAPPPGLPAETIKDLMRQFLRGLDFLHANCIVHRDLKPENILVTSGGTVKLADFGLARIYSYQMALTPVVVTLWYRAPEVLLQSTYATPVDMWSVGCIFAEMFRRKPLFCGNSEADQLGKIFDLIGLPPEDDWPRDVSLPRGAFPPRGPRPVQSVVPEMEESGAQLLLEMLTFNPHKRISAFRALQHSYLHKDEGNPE
Target sequence in this assay (P24385 whole entry partner): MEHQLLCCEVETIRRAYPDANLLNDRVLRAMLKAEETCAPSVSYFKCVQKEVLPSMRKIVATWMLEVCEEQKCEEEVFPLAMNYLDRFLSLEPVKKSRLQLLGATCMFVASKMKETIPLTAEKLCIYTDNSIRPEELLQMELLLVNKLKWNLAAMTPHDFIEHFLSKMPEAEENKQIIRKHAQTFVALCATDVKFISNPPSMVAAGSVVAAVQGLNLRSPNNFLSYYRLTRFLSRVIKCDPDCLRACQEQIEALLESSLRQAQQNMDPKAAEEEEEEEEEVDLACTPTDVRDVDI
Target sequence in this assay (Q16531 2-1140 limits assumed): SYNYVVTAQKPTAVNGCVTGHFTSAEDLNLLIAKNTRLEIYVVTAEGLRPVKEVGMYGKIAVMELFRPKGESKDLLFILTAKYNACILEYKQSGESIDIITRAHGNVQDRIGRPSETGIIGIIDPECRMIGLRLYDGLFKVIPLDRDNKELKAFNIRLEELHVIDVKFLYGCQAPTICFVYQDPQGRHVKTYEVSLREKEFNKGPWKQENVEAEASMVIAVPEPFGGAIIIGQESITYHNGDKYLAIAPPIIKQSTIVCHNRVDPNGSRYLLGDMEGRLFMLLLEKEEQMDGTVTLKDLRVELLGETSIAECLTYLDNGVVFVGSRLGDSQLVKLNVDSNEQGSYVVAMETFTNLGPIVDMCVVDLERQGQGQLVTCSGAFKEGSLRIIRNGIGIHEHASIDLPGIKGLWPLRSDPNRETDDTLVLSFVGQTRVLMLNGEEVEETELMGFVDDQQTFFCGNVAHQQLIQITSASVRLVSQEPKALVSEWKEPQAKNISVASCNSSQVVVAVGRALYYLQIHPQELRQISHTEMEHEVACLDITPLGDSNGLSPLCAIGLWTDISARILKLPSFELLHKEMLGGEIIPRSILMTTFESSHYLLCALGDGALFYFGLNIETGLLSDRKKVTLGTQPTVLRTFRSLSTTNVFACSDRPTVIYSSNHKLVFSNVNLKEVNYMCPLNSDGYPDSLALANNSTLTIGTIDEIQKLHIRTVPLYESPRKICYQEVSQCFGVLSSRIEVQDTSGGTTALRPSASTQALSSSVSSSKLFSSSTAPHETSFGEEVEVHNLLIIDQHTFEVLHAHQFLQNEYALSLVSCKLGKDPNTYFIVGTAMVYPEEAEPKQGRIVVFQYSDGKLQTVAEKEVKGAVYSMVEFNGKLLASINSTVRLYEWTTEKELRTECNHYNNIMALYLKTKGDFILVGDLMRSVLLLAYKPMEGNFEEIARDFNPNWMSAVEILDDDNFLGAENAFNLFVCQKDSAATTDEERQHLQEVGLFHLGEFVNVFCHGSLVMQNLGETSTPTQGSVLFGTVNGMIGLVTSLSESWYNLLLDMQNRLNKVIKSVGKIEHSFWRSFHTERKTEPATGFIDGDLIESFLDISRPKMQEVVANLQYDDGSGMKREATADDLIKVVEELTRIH

MCF7 cells = assay: Anti-proliferation (viability) of MCF7 cells (Table 7, FIG. 2B); settings: Homo sapiens, MCF7, MCF7 cells, 3-6 days, 10-point serial dilution; read-out: GI IC50 in MCF-7
Calu-1 cells = assay: Anti-proliferation (viability) of NSCLC Calu-1 cells, 3 days (Table 7, FIG. 2B); settings: Homo sapiens, 72 h; Calu-1 cells, 3 days, 10-point serial dilution; read-out: GI IC50 in Calu-1
Outline: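 Viability after a 10-point dilution series of heterobifunctional compounds, with exposure of 6 days for ER+ breast T47D cells and 3 days for NSCLC Calu-1 cells.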

CDK4 [2] = target: T1, CDK4; assay: CDK4 percentage degradation in Calu-1 cells (Table 6); parameters: Cells that express cyclin D1-3 and CDK4/6 proteins were treated with heterobifunctional compounds; endogenous in cells; host or cells: Calu-1; settings: 16 hours
Outline: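 Percentage degradation of Cyclin D1 and CDK4 derived from densitometry of ECL Western blots on lysates of Calu-1 cells. Treatment was 16 h with compound at either 40 nM or 200 nM.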
Target sequence in this assay (P11802 2-303 limits assumed): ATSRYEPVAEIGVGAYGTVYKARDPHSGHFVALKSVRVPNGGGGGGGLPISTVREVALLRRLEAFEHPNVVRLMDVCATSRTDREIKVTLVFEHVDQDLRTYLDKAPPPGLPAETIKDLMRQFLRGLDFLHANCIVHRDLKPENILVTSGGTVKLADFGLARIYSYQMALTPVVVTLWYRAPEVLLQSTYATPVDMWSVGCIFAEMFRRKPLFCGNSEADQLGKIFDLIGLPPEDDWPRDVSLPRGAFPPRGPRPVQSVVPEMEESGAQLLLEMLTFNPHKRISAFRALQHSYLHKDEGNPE
Target sequence in this assay (P24385 whole entry partner): as the sequence (P24385 whole entry partner) above
Target sequence in this assay (Q16531 2-1140 limits assumed): as the sequence (Q16531 2-1140 limits assumed) above

activity at 0.01 µM (CDK4 [1]) [%]	activity at 0.1 µM (CDK4 [1]) [%]	IC50 (MCF7 cells) [nM]	IC50 (Calu-1 cells) [nM]	inhibition at 0.04 µM (CDK4 [2]; 40 nM) [%]	inhibition at 0.2 µM (CDK4 [2]; 200 nM) [%]	Structure (SMILES)
55 to 85	55 to 85	< 50	≤ 10	< 30	< 30	CC(=O)c1c(C)c2cnc(Nc3ccc(N4CCN(CC(=O)NCC5CC(Nc6nc(NC(C)C)ccc6C(=O)Nc6cc(C)on6)C5)CC4)cn3)nc2n(C2CCCC2)c1=O (stereo not drawn) [CPD-282, 2-((3-((2-(4-(6-((6-acetyl-8-cyclopentyl-5-methyl-7-oxo-7,8-dihydropyrido[2,3-d]pyrimidin-2-yl)amino)pyridin-3-yl)piperazin-1-yl)acetamido)methyl)cyclobutyl)amino)-6-(isopropylamino)-N-(5-methylisoxazol-3-yl)nicotinamide]
55 to 85	55 to 85	< 50	≤ 10			CC(=O)c1c(C)c2cnc(Nc3ccc(CN4CCN(CC(=O)N5CCC6(CCC(Nc7nc(NC(C)C)ccc7C(=O)Nc7ccc(N(C)C)nn7)C6)C5)CC4)cn3)nc2n(C2CCCC2)c1=O (stereo not drawn) [CPD-487, 2-((2-(2-(4-((6-((6-acetyl-8-cyclopentyl-5-methyl-7-oxo-7,8-dihydropyrido[2,3-d]pyrimidin-2-yl)amino)pyridin-3-yl)methyl)piperazin-1-yl)acetyl)-2-azaspiro[4.4]nonan-7-yl)amino)-N-(6-(dimethylamino)pyridazin-3-yl)-6-(isopropylamino)nicotinamide]
55 to 85	≤ 55	< 50	≤ 10			CC(=O)c1c(C)c2cnc(Nc3ccc(CN4CCN(CC(=O)NC5CC6(C5)CC(Nc5nc(NC(C)C)ccc5C(=O)Nc5ccc(N(C)C)nn5)C6)CC4)cn3)nc2n(C2CCCC2)c1=O (stereo not drawn) [CPD-472, 2-((6-(2-(4-((6-((6-acetyl-8-cyclopentyl-5-methyl-7-oxo-7,8-dihydropyrido[2,3-d]pyrimidin-2-yl)amino)pyridin-3-yl)methyl)piperazin-1-yl)acetamido)spiro[3.3]heptan-2-yl)amino)-N-(6-(dimethylamino)pyridazin-3-yl)-6-(isopropylamino)nicotinamide]
> 85	> 85	< 50	≤ 10			CC(=O)c1c(C)c2cnc(Nc3ccc(CN4CCN(CC(=O)N5CC6(CCC(Nc7nc(NC(C)C)ccc7C(=O)Nc7ccc(N(C)C)nn7)C6)C5)CC4)cn3)nc2n(C2CCCC2)c1=O (stereo not drawn) [CPD-515, 2-((2-(2-(4-((6-((6-acetyl-8-cyclopentyl-5-methyl-7-oxo-7,8-dihydropyrido[2,3-d]pyrimidin-2-yl)amino)pyridin-3-yl)methyl)piperazin-1-yl)acetyl)-2-azaspiro[3.4]octan-6-yl)amino)-N-(6-(dimethylamino)pyridazin-3-yl)-6-(isopropylamino)nicotinamide]
> 85	> 85	< 50	≤ 10			CCc1ccc(C(=O)Nc2ccc(N(C)C)nn2)c(N[C@H]2CC[C@H](C(=O)N3CCC(N4CCN(c5ccc(Nc6ncc7c(C)c(C(C)=O)c(=O)n(C8CCCC8)c7n6)nc5)CC4)C3)CC2)n1 (stereo partly drawn) [CPD-492, 2-((4-(3-(4-(6-((6-acetyl-8-cyclopentyl-5-methyl-7-oxo-7,8-dihydropyrido[2,3-d]pyrimidin-2-yl)amino)pyridin-3-yl)piperazin-1-yl)pyrrolidine-1-carbonyl)cyclohexyl)amino)-N-(6-(dimethylamino)pyridazin-3-yl)-6-ethylnicotinamide]
> 85	55 to 85	< 50	≤ 10			CC(=O)c1c(C)c2cnc(Nc3ccc(N4CCC5(CCN(CC(=O)N6CC7(CC(Nc8nc(NC(C)C)ccc8C(=O)Nc8cn9c(n8)CCC9)C7)C6)C5)C4)cn3)nc2n(C2CCCC2)c1=O (stereo not drawn) [CPD-565, 2-((2-(2-(7-(6-((6-acetyl-8-cyclopentyl-5-methyl-7-oxo-7,8-dihydropyrido[2,3-d]pyrimidin-2-yl)amino)pyridin-3-yl)-2,7-diazaspiro[4.4]nonan-2-yl)acetyl)-2-azaspiro[3.3]heptan-6-yl)amino)-N-(6,7-dihydro-5H-pyrrolo[1,2-a]imidazol-2-yl)-6-(isopropylamino)nicotinamide]
55 to 85	55 to 85	< 50	≤ 10			CC(=O)c1c(C)c2cnc(Nc3ccc(N4CCN(CCC(=O)NC56CC(Nc7nc(NC(C)C)ccc7C(=O)Nc7ccc(N(C)C)nn7)(C5)C6)CC4)cn3)nc2n(C2CCCC2)c1=O [CPD-503, 2-((3-(3-(4-(6-((6-acetyl-8-cyclopentyl-5-methyl-7-oxo-7,8-dihydropyrido[2,3-d]pyrimidin-2-yl)amino)pyridin-3-yl)piperazin-1-yl)propanamido)bicyclo[1.1.1]pentan-1-yl)amino)-N-(6-(dimethylamino)pyridazin-3-yl)-6-(isopropylamino)nicotinamide]
> 85	> 85	< 50	≤ 10			CC(=O)c1c(C)c2cnc(Nc3ccc(N4CCC(N(C)CC(=O)NC56CC(Nc7nc(NC(C)C)ccc7C(=O)Nc7ccc(N(C)C)nn7)(C5)C6)CC4)cn3)nc2n(C2CCCC2)c1=O [CPD-505, 2-((3-(2-((1-(6-((6-acetyl-8-cyclopentyl-5-methyl-7-oxo-7,8-dihydropyrido[2,3-d]pyrimidin-2-yl)amino)pyridin-3-yl)piperidin-4-yl)(methyl)amino)acetamido)bicyclo[1.1.1]pentan-1-yl)amino)-N-(6-(dimethylamino)pyridazin-3-yl)-6-(isopropylamino)nicotinamide]
≤ 55	≤ 55	< 50	≤ 10			CC(=O)c1c(C)c2cnc(Nc3ccc(N4CCN(C5CCN(C(=O)N6CCC(Nc7nc(NC(C)C)ccc7C(=O)Nc7ccc(N(C)C)nn7)CC6)C5)CC4)cn3)nc2n(C2CCCC2)c1=O (stereo not drawn) [CPD-469, 2-((1-(3-(4-(6-((6-acetyl-8-cyclopentyl-5-methyl-7-oxo-7,8-dihydropyrido[2,3-d]pyrimidin-2-yl)amino)pyridin-3-yl)piperazin-1-yl)pyrrolidine-1-carbonyl)piperidin-4-yl)amino)-N-(6-(dimethylamino)pyridazin-3-yl)-6-(isopropylamino)nicotinamide]
> 85	> 85	< 50	≤ 10			CC(=O)c1c(C)c2cnc(Nc3ccc(N4CCC5(CCN(CC(=O)N6CC7(CC(Nc8nc(NC(C)C)ccc8C(=O)Nc8cc9n(n8)CCC9)C7)C6)C5)C4)cn3)nc2n(C2CCCC2)c1=O (stereo not drawn) [CPD-529, 2-((2-(2-(7-(6-((6-acetyl-8-cyclopentyl-5-methyl-7-oxo-7,8-dihydropyrido[2,3-d]pyrimidin-2-yl)amino)pyridin-3-yl)-2,7-diazaspiro[4.4]nonan-2-yl)acetyl)-2-azaspiro[3.3]heptan-6-yl)amino)-N-(5,6-dihydro-4H-pyrrolo[1,2-b]pyrazol-2-yl)-6-(isopropylamino)nicotinamide]
> 85	> 85	< 50	≤ 10			CC(=O)c1c(C)c2cnc(Nc3ccc(CN4CCN(CC(=O)NC5CCC(Nc6nc(NC(C)C)ccc6C(=O)Nc6ccc(N(C)C)nn6)CC5)CC4)cn3)nc2n(C2CCCC2)c1=O (stereo not drawn) [CPD-473, 2-((4-(2-(4-((6-((6-acetyl-8-cyclopentyl-5-methyl-7-oxo-7,8-dihydropyrido[2,3-d]pyrimidin-2-yl)amino)pyridin-3-yl)methyl)piperazin-1-yl)acetamido)cyclohexyl)amino)-N-(6-(dimethylamino)pyridazin-3-yl)-6-(isopropylamino)nicotinamide]
55 to 85	55 to 85	< 50	≤ 10			COc1cccc(NC(=O)c2ccc(NC(C)C)nc2NC2CC3(C2)CN(C(=O)CN2CCC4(CCN(c5ccc(Nc6ncc7c(C)c(C(C)=O)c(=O)n(C8CCCC8)c7n6)nc5)C4)C2)C3)n1 (stereo not drawn) [CPD-532, 2-((2-(2-(7-(6-((6-acetyl-8-cyclopentyl-5-methyl-7-oxo-7,8-dihydropyrido[2,3-d]pyrimidin-2-yl)amino)pyridin-3-yl)-2,7-diazaspiro[4.4]nonan-2-yl)acetyl)-2-azaspiro[3.3]heptan-6-yl)amino)-6-(isopropylamino)-N-(6-methoxypyridin-2-yl)nicotinamide]
> 85	> 85	> 100	≥ 50			CNc1ccc(C(=O)Nc2ccc(N(C)C)nn2)c(NCCC(=O)N2CCN(c3ccc(Nc4ncc5cc(C(=O)N(C)C)n(C6CCCC6)c5n4)nc3)CC2)n1 [CPD-616, 7-cyclopentyl-2-((5-(4-(3-((3-((6-(dimethylamino)pyridazin-3-yl)carbamoyl)-6-(methylamino)pyridin-2-yl)amino)propanoyl)piperazin-1-yl)pyridin-2-yl)amino)-N,N-dimethyl-7H-pyrrolo[2,3-d]pyrimidine-6-carboxamide]
